Test results reported in US7683061B2, “Triazine dimers for the treatment of autoimmune diseases” (ProMetic BioSciences Inc., priority 2003, dated 2010).
Where two headings read alike, the source gives them in different places.

Legend:
[1] = test system: TNFα production, J774A-1 cells; assay: LPS-induced TNFα production in J774A-1 cells (ELISA); format: cell-based; details: Mus musculus, J774.A1, 24 h, read-out: IC50 (μM), inhibition of TNFα released by LPS induction
Protocol: Effect of compounds on TNFα production was measured by ELISA using J774-1 cells stimulated by LPS. J774-1 cells were cultured in the presence or absence of LPS and compound. Cells were cultured at 37° C. for 24 h and thereafter the supernatants were collected for the determination of the concentration of TNFα by ELISA as recommended by the manufacturer (BD Biosciences). Data was analyzed in Microsoft Excel and the concentration of compound which inhibits 50% of TNFα production (IC50) was calculated using Prism software.

[2] = target: T1, Fc portion of human IgG (binding of protein A to human IgG); assay: Competitive protein A binding ELISA; details: Table 1
T1 construct: fused on or other part: Horseradish peroxidase chemically conjugated to the IgG (HRP-IgG)
Protocol: As described above, this assay evaluates the ability of the exemplified compounds to mimic protein A. Such compounds can bind to the Fc portion of human IgG as ascertained by the inhibition of binding of protein A to human IgG. The competitive protein A binding ELISA assay was performed on a 96-well plate Maxisorp surface to enhance the binding of protein A to the bottom of the plate. The wells were coated with 100 μL of protein A (0.8 μg) and incubated overnight at 4° C. After incubation, unbound protein A was removed by three washes with phosphate buffer saline (PBS). The plate was then incubated with 100 μL/well of a 2% solution of bovine serum albumin (BSA) for 1 h at 37° C. to block non specific protein binding. After incubation, the plate was washed to times with PBS. 50 μL of compound or protein A, diluted in PBS or PBS-20% DMSO at appropriate concentration, were added to the wells followed by addition of 50 μL of peroxidase-conjugated human IgG (HRP-IgG). After 1 h incubation at 37° C., the plate was washed free times with PBS to remove unbound HRP-IgG. Bound HRP-IgG was detected by incubation with 100 μL of 2,2′-Azino-di[3-ethylbenzothiazoline sulfonate]diammonium salt crystals (ABTS) solution for 20 min in the dark at room temperature. The plate was then read at 405 nm on a EL 800, universal Microplate reader (Bio-Tek). Data was analyzed in Microsoft Excel and the concentration of compound which inhibits 50% binding of protein A (IC50) was calculated using Prism software.
Table 1 represents the IC50 of compounds tested in the competitive protein A binding ELISA assay, which consists of a side-by-side analysis in PBS and PBS-20% DMSO. DMSO was used to increase the solubility of some of the compounds.

RAW 264.7 cells = assay: Phagocytosis of FITC-immune complexes by RAW 264.7 cells; format: cell-based; details: Mus musculus, RAW264.7; 20 μM; read-out: inhibition of phagocytosis of IC
Protocol: This assay was performed to determine the ability of protein A mimic compounds to stimulate or inhibit uptake of FITC-Immune Complex (IC). FITC-IC was prepared by mixing human serum albumin (HSA)-fluorescein isothiocyanate (FITC) with mouse IgG anti-HSA at a 1:4 ratio (four molecules of antibody for one molecule of antigen) on a rotary shaker for 1 h at room temperature. Soluble IC was then incubated with or without compounds or protein A for 10 min. This mixture was added to RAW 264.7 cells and incubated for 2 h at 37° C. for IC phagocytosis. After incubation, cells were washed twice in cold PBS (5 min, 1200 rpm) and fixed with 500 μL PBS containing 2% formaldehyde. FITC signal taken up by RAW 264.7, which is indicative of IC phagocytosis, was determined by flow cytometry analysis in a Becton Coulter counter with an argon laser and signal was measured through a 530/30 nm filter.

MRL/lpr mice = assay: SLE-like syndrome in MRL/lpr mice; format: in vivo; details: control group 10%
From the text: FIG. 5 is an example of the effect of compounds on survival of MRL/lpr mice. These mice also spontaneously develop SLE-like syndrome. MRL/lpr have a homozygous fas mutation, which accelerates autoimmunity. […] Furthermore, compounds 1 and 20 increase the survival (40%) compared to the control group (10%).

[3] = test system: female Lewis rats, collagen-induced arthritis; assay: Collagen-induced arthritis (CIA); format: in vivo; details: intravenous; by day 14 and beyond
Protocol: Collagen-induced arthritis (CIA) was induced in female Lewis rats by intradermal administration of heterologous (bovine) type II collagen (250 μg) solubilized in 0.1 M acetic acid and emulsified in Complete Freund's Adjuvant (CFA). Rats were treated with the vehicle or methotrexate or compound 1 by intravenous injections at day 8, 9, 12, 14 and 16. Synovitis typically develops 12-15 days postimmunization in 80-90% of the animals. Once arthritis appears, each paw was examined two to three times a week. Both the incidence and severity of the arthritis was evaluated. Incidence is defined as the number of rats with clinical evidence of joint inflammation during the study period while severity was quantified by scoring daily each paw integer on a scale of 0 to 4 (0=normal, 4=maximum; Table 7) based on increasing levels of swelling, periarticular erythema and stiffness. The sum of the scores for all four paws was calculated as the arthritic index with a maximum possible score of 16 per rat. Since CIA primarily affects hind limbs, scores of 6-8 represent severe arthritis.

[4] = test system: female Lewis rats, adjuvant-induced arthritis; assay: Freund's adjuvant-induced arthritis (AIA); format: in vivo
From the text: AIA was induced in female Lewis rats by the injection of lyophilized Mycobacterium butyricum suspended in mineral oil into the footpad. The development of aridity was monitored over a 3 weeks period post-adjuvant injection, inflammation peaks at day 3 following the adjuvant administration. Immune activation appears around day 14. Compounds were orally or intravenously administered at different doses at day −3, −2 and −1 pre-adjuvant injection and at different regimen as specified in the exponent starting from day 10 through 21 post-adjuvant injection or animals were treated with oral admiration of compound 19a from day −3 to day 21. Body weight was recorded. The arthritis index, which is a measure of inflammation (oedema), redness and stiffness of the articulations, was used to monitor the development of the disease. The degree of arthritis was determined by measuring two perpendicular diameters of the ankles in the mediolateral and dorsoventral planes using a caliper. Joint circumference in millimeters is then calculated using a geometric formula. Both the incidence and severity of the arthritis was evaluated. Incidence is defined as the number of rats with clinical evidence of joint inflammation during the study period.

[5] = PBS-20% DMSO, read-out: IC50 (μM): Assay in PBS-20% DMSO

| IC50 ([2]; PBS, read-out: IC50 (μM): Assay in PBS) [µM] | Compound | IC50 [1] [µM] | IC50 [2, 5] [µM] | inhibition at 20 µM (RAW 264.7 cells) [%] | survival of MRL/lpr mice (MRL/lpr mice) [%] | reduction in the severity of arthritis (arthritic index) [3] [%] | inhibition of chronic inflammation (days 12 to 21) ([4]; days 15 to 21) | reduction in the severity of arthritis (inflammatory index) ([4]; intravenous, by day 19 and over, FIG. 10) [%] |
| --- | --- | --- | --- | --- | --- | --- | --- | --- |
| 33 | N=C(N)NCCNc1nc(NCCc2ccc(Oc3nc(NCCc4ccc(O)cc4)nc(Nc4ccccc4)n3)cc2)nc(Nc2ccccc2)n1 [Compound 14] | 11.8 | 63 | ~50 |  |  |  |  |
|  | OCCNc1nc(NCCc2ccc(Nc3nc(NCCc4ccc(O)cc4)nc(Nc4ccccc4)n3)cc2)nc(Nc2ccccc2)n1 [Compound 20] | 23.3 | 26 |  | 40 |  |  |  |
|  | CN(Cc1cnc2nc(N)nc(N)c2n1)c1ccc(C(=O)N[C@@H](CCC(=O)O)C(=O)O)cc1 [methotrexate, reference compound] |  |  |  |  | 50 | strong and significant inhibition of inflammation | 50 |
